Results published in patent US10821115B2, “Compounds that inhibit Mcl-1 protein” (priority 2017, dated 2020).
pIC50: −log10 of the molar value.

The compounds below were run on human multiple myeloma cell line, OPM-2 (assay: Cell viability assay (OPM-2 10 FBS), CellTiter-Glo). Conditions: Homo sapiens, OPM-2, 16 h, read-out: OPM-2 10% FBS IC50 IP, OPM-2 cells, 10% FBS, 16 h, CellTiter-Glo.
Assay type: cell-based
Protocol: Cell viability assay (OPM-2 10 FBS)
The human multiple myeloma cell line, OPM-2, was cultured in complete growth medium containing RPMI 1640 and 10% fetal bovine serum (FBS). Cells were seeded into 384-well plates at 3000 cells/well density in complete growth medium containing 10% FBS, and incubated for 16 h with serially diluted test compounds in a 37° C. incubator with 5% CO2. Cell viability was tested using CellTiter-Glo® assay (Promega, Madison, Wis.) according to the manufacturer recommendations. Luminescence was determined using an EnVision® Multilabel plate reader 25 min after the addition of detection reagent. IC50 values were then calculated with Xlfit using a logistical 4-parameter fit model in GraphPad Prism (GraphPad Software, San Diego, Calif.) or in Genedata Screener® (Genedata, Basel, Switzerland).

SMILES | pIC50
CO[C@@]1(CC(=O)NCc2ncco2)/C=C/C[C@H](C)[C@@H](C)S(=O)(=O)NC(=O)c2ccc3c(c2)N(C[C@@H]2CC[C@H]21)C[C@@]1(CCCc2cc(Cl)ccc21)CO3 [Example 100577, 2-((1S,3′R,6′R,7′S,8′E,11′S,12′R)-6-chloro-7′-methoxy-11′,12′-dimethyl-13′,13′-dioxido-15′-oxo-3,4-dihydro-2H-spiro[naphthalene-1,22′-[20]oxa[13]thia[1,14]diazatetracyclo [14.7.2.0~3,6~.0~19,24~]pentacosa[8,16,18,24]tetraen]-7′-yl)-N-(1,3-oxazol-2-ylmethyl)acetamide] | 5.69

Same assay, conditions: Homo sapiens, OPM-2, 16 h, read-out: OPM-2 10% FBS IC50 IP, OPM-2 cells, 10% FBS, 16 h incubation

SMILES | pIC50
CCO[C@]1(CN2CCN(C(C)(C)C)CC2)/C=C/C[C@H](C)[C@@H](C)S(=O)(=O)NC(=O)c2ccc3c(c2)N(C[C@@H]2CC[C@H]21)C[C@@]1(CCCc2cc(Cl)ccc21)CO3 [Example 6, (1S,3′R,6′R,7′R,8′E,11′S,12′R)-7′-((4-TERT-BUTYL-1-PIPERAZINYL)METHYL)-6-CHLORO-7′-ETHOXY-11′,12′-DIMETHYL-3,4-DIHYDRO-2H,15′H-SPIRO[NAPHTHALENE-1,22′-[20]OXA[13]THIA[1,14]DIAZATETRACYCLO[14.7.2.0-3,6˜.0˜19,24˜]PENT ACOSA[8,16,18,24]TETRAEN]-15′-ONE 13′,13′-DIOXIDE] | 7.12
CCO[C@]1(CN2CCN(C3COC3)CC2)/C=C/C[C@H](C)[C@@H](C)S(=O)(=O)NC(=O)c2ccc3c(c2)N(C[C@@H]2CC[C@H]21)C[C@@]1(CCCc2cc(Cl)ccc21)CO3 [Example 2, (1 S,3′R,6′R,7′R,8′E,11′S,12′R)-6-chloro-7′-ethoxy-11′,12′-dimethyl-7′-((4-(3-oxetanyl)-1-piperazinyl)methyl)-3,4-dihydro-2H, 15′H-spiro[naphthalene-1,22′-[20]oxa[13]thia[1,14]diazatetracyclo[14.7.2.0-3,6˜.0˜19,24˜]pentacosa[8,16,18,24]tetraen]-15′-one 13′,13′-dioxide] | 7.12
CCO[C@@]1(CN2CCN(C3(C)COC3)CC2)/C=C/C[C@H](C)[C@@H](C)S(=O)(=O)NC(=O)c2ccc3c(c2)N(C[C@@H]2CC[C@H]21)C[C@@]1(CCCc2cc(Cl)ccc21)CO3 [Example 311, (1S,3′R,6′R,7′S,8′E,11′S,12′R)-6-chloro-7′-ethoxy-11′,12′-dimethyl-7′-((4-(3-methyl-3-oxetanyl)-1-piperazinyl)methyl)-3,4-dihydro-2H,15′H-spiro[naphthalene-1,22′-[20]oxa[13]thia[1,14]diazatetracyclo [14.7.2.0~3,6~.0~19,24~]pentacosa[8,16,18,24]tetraen]-15′-one 13′,13′-dioxide] | 6.44
COCCN(CCOC)C1CCN(C[C@]2(OC)/C=C/C[C@H](C)[C@@H](C)S(=O)(=O)NC(=O)c3ccc4c(c3)N(C[C@@H]3CC[C@H]32)C[C@@]2(CCCc3cc(Cl)ccc32)CO4)CC1 [Example 308, (1S,3′R,6′R,7′S,8′E,11′S,12′R)-7′-((4-(bis(2-methoxyethyl)amino)-1-piperidinyl)methyl)-6-chloro-7′-methoxy-11′,12′-dimethyl-3,4-dihydro-2H,15′H-spiro[naphthalene-1,22′-[20]oxa[13]thia[1,14]diazatetracyclo [14.7.2.0~3,6~.0~19,24~]pentacosa[8,16,18,24]tetraen]-15′-one 13′,13′-dioxide] | 7.15
CO[C@@]1(CNCCN2CCOCC2)/C=C/C[C@H](C)[C@@H](C)S(=O)(=O)NC(=O)c2ccc3c(c2)N(C[C@@H]2CC[C@H]21)C[C@@]1(CCCc2cc(Cl)ccc21)CO3 [Example 34, (1 S,3′R,6′R,7′S,8′E,11′S,12′R)-6-chloro-7′-methoxy-11′,12′-dimethyl-7′-(((2-(4-morpholinyl)ethyl)amino)methyl)-3,4-dihydro-2H, 15′H-spiro[naphthalene-1,22′-[20]oxa[13]thia[1,14]diazatetracyclo[14.7.2.0˜3,6˜.0˜19,24˜]pentacosa[8,16,18,24]tetraen]-15′-one 13′,13′-dioxide] | 6.42
CO[C@@]1(CN2CCN(CC(=O)O)CC2)/C=C/C[C@H](C)[C@@H](C)S(=O)(=O)NC(=O)c2ccc3c(c2)N(C[C@@H]2CC[C@H]21)C[C@@]1(CCCc2cc(Cl)ccc21)CO3 [Example 270, (4-(((1S,3′R,6′R,7′S,8′E,11′S,12′R)-6-CHLORO-7′-METHOXY-11′,12′-DIMETHYL-13′,13′-DIOXIDO-15′-OXO-3,4-DIHYDRO-2H-SPIRO[NAPHTHALENE-1,22′-[20]OXA[13]THIA[1,14]DIAZATETRACYCLO[14.7.2.0-3,6˜.0˜19,24˜]PENT ACOSA[8,16,18,24]TETRAEN]-7′-YL)METHYL)-1-PIPERAZINYL)ACETIC ACID] | 5.31

Same assay, conditions: read-out: OPM-2 10% FBS IC50 IP; OPM-2 cells, 10% FBS, 16 h, CellTiter-Glo

SMILES | pIC50
CO[C@@]1(C#CCCc2ccncn2)/C=C/C[C@H](C)[C@@H](C)S(=O)(=O)NC(=O)c2ccc3c(c2)N(C[C@@H]2CC[C@H]21)C[C@@]1(CCCc2cc(Cl)ccc21)CO3 [Example 100519, (1S,3′R,6′R,7′S,8′E,11′S,12′R)-6-chloro-7′-methoxy-11′,12′-dimethyl-7′-(4-(4-pyrimidinyl)-1-butyn-1-yl)-3,4-dihydro-2H,15′H-spiro[naphthalene-1,22′-[20]oxa[13]thia[1,14]diazatetracyclo [14.7.2.0~3,6~.0~19,24~]pentacosa[8,16,18,24]tetraen]-15′-one 13′,13′-dioxide] | 6.86

Same assay, conditions: read-out: OPM-2 10% FBS IC50 IP; OPM-2 cells, 10% FBS, 16 h incubation

SMILES | pIC50
CO[C@]1(C(=O)N(C)C)/C=C/C[C@H](C)[C@@H](C)S(=O)(=O)NC(=O)c2ccc3c(c2)N(C[C@@H]2CC[C@H]21)C[C@@]1(CCCc2cc(Cl)ccc21)CO3 [Example 177, (1S,3′R,6′R,7′R,8′E,11′S,12′R)-6-chloro-7′-methoxy-N,N, 11′,12′-tetramethyl-15′-oxo-3,4-dihydro-2H-spiro[naphthalene-1,22′-[20]oxa[13]thia[1,14]diazatetracyclo[14.7.2.0-3,6˜.0˜19,24˜]pentacosa[8,16,18,24]tetraene]-7′-carboxamide 13′,13′-dioxide] | 6.21
CCO[C@]1(CN2CCN(C(C)C)[C@H](C)C2)/C=C/C[C@H](C)[C@@H](CCOC)S(=O)(=O)NC(=O)c2ccc3c(c2)N(C[C@@H]2CC[C@H]21)C[C@@]1(CCCc2cc(Cl)ccc21)CO3 [Example 17, (1S,3′R,6′R,7′R,8′E,11′S,12′R)-6-chloro-7′-ethoxy-12′-(2-methoxyethyl)-11′-methyl-7′-(((3R)-3-methyl-4-(1-methylethyl)-1-piperazinyl)methyl)-3,4-dihydro-2H,15′H-spiro[naphthalene-1,22′-[20]oxa[13]thia[1,14]diazatetracyclo[14.7.2.0-3,6˜.0˜19,24˜]pentacosa[8,16,18,24]tetraen]-15′-one 13′,13′-dioxide] | 7.47
CCO[C@]1(CN2CCN(C(C)C)[C@H](C)C2)/C=C/C[C@H](C)[C@@H](C)S(=O)(=O)NC(=O)c2ccc3c(c2)N(C[C@@H]2CC[C@H]21)C[C@@]1(CCCc2cc(Cl)ccc21)CO3 [Example 9, (1 S,3′R,6′R,7′R,8′E,11′S, 12′R)-6-CHLORO-7′-ETHOXY-11′,12′-DIMETHYL-7′-(((3R)-3-METHYL-4-(1-METHYLETHYL)-1-PIPERAZINYL)METHYL)-3,4-DIHYDRO-2H, 15′H-SPIRO[NAPHTHALENE-1,22′-[20]OXA[13]THIA[1,14]DIAZATETRACYCLO[14.7.2.0-3,6˜.0˜19,24˜]PENT ACOSA[8,16,18,24]TETRAEN]-15′-ONE 13′,13′-DIOXIDE] | 7.30
CO[C@]1(CN2CCN3CCN(C(C)=O)C[C@@H]3C2)/C=C/C[C@H](C)[C@@H](C)S(=O)(=O)NC(=O)c2ccc3c(c2)N(C[C@@H]2CC[C@H]21)C[C@@]1(CCCc2cc(Cl)ccc21)CO3 [Example 218] | 7.04
